The values below come from the supplement of paper PMC10307832.

What all share (assay): relative viability (nuclei count vs DMSO), 5 days (fraction); higher = more cells survive
Compound in the assay “BAY61-3606 + Pemetrexed”: COC1=C(C=C(C=C1)C2=CC3=NC=CN3C(=N2)NC4=C(C=CC=N4)C(=O)N)OC [BAY61-3606] + Nc1nc2[nH]cc(CCc3ccc(C(=O)N[C@@H](CCC(=O)O)C(=O)O)cc3)c2c(=O)[nH]1 [Pemetrexed] (partner 0.2 µM)
Summed up: (§1)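 Five library-drug doses in √10 steps were combined with a fixed anchor-drug dose, or a single drug was given alone, by pin tool to lung cancer cell lines in 1536-well plates the day after seeding. Nuclei were stained and counted after 5 days. Relative viability is the nuclei count in treated wells over that in vehicle wells, taken as the median of duplicate plates.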

Compound in the assay “BAY61-3606 + Decitabine”: COC1=C(C=C(C=C1)C2=CC3=NC=CN3C(=N2)NC4=C(C=CC=N4)C(=O)N)OC [BAY61-3606] + Nc1ncn([C@H]2C[C@H](O)[C@@H](CO)O2)c(=O)n1 [Decitabine] (partner 2 µM)
The procedure, abridged: as §1

Compound in assay [1]: COc1cccc2c1C(=O)c1c(O)c3c(c(O)c1C2=O)C[C@@](O)(C(=O)CO)C[C@@H]3O[C@H]1C[C@H](N)[C@H](O)[C@H](C)O1 [Doxorubicin] + CC(=O)c1c(C)c2cnc(Nc3ccc(N4CCNCC4)cn3)nc2n(C2CCCC2)c1=O [Palbociclib] (partner 0.5 µM)
The procedure, abridged: as §1

Compound in the assay “Doxorubicin + Decitabine”: COc1cccc2c1C(=O)c1c(O)c3c(c(O)c1C2=O)C[C@@](O)(C(=O)CO)C[C@@H]3O[C@H]1C[C@H](N)[C@H](O)[C@H](C)O1 [Doxorubicin] + Nc1ncn([C@H]2C[C@H](O)[C@@H](CO)O2)c(=O)n1 [Decitabine] (partner 2 µM)
The procedure, abridged: as §1

As for UMC-11, the relative viability in the assay with BAY61-3606 + Pemetrexed (first compound 0.02 µM) came to 0.813; with BAY61-3606 + Pemetrexed (first compound 0.06325 µM), 0.795; with BAY61-3606 + Pemetrexed (first compound 0.2 µM), 0.789; with BAY61-3606 + Pemetrexed (first compound 0.6325 µM), 0.781; in the assay with BAY61-3606 + Pemetrexed (first compound 2 µM), 0.612; in the assay with BAY61-3606 + Decitabine (first compound 0.02 µM) it was 0.65. Further, the relative viability with BAY61-3606 + Decitabine (first compound 0.06325 µM) was determined as 0.476; with BAY61-3606 + Decitabine (first compound 0.2 µM), 0.601; in the assay with BAY61-3606 + Decitabine (first compound 0.6325 µM), 0.597; with BAY61-3606 + Decitabine (first compound 2 µM), 0.548; in assay [1] (first compound 0.001 µM), 0.378; in assay [1] (first compound 0.003162 µM), 0.339. In addition, the relative viability in assay [1] (first compound 0.01 µM) was 0.314; in assay [1] (first compound 0.03162 µM), 0.256; in assay [1] (first compound 0.1 µM), 0.325; with Doxorubicin + Decitabine (first compound 0.001 µM), 0.641; with Doxorubicin + Decitabine (first compound 0.003162 µM), 0.497; with Doxorubicin + Decitabine (first compound 0.01 µM), 0.619. Further, the relative viability in the assay with Doxorubicin + Decitabine (first compound 0.03162 µM) stood at 0.385; with Doxorubicin + Decitabine (first compound 0.1 µM), 0.41.
